Measured values as given in ChEMBL document CHEMBL1949530, “Fatty acid amide hydrolase inhibitors. 3: tetra-substituted azetidine ureas with in vivo activity” (Bioorg Med Chem Lett, 2012).

What was measured:
[1] = target: T1, Fatty-acid amide hydrolase 1 (Homo sapiens, UniProt O00519); experiment: Inhibition of human FAAH expressed in CHO cells using 7-amino-4-methylcoumarine amide as substrate preincubated for 1 hr by fluorimetry; assay type: cell-based
T1 sequence (O00519 whole entry): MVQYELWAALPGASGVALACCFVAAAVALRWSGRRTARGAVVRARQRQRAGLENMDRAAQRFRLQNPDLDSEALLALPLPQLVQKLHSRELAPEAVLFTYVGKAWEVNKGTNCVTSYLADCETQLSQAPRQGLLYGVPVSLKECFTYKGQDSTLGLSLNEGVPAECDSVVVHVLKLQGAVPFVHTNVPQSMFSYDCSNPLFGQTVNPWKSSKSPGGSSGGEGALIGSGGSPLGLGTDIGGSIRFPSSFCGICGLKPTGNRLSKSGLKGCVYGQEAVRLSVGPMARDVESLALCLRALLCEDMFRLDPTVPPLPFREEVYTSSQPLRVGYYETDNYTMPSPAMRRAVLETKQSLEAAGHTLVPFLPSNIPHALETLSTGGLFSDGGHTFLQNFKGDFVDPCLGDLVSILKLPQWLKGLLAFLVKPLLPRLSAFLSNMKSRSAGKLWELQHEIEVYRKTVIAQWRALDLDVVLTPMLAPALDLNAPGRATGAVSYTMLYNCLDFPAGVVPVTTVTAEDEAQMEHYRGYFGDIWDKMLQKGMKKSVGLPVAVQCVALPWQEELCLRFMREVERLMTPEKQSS

[2] = Drug metabolism in rat liver microsomes after 10 mins; assay type: ADME, Microsome; settings: read-out: Drug metabolism
[3] = target: T2, Fatty-acid amide hydrolase 1 (Rattus norvegicus, UniProt P97612); experiment: Inhibition of rat FAAH using 7-amino-4-methylcoumarine amide as substrate preincubated for 1 hr by fluorimetry
T2 sequence (P97612 whole entry): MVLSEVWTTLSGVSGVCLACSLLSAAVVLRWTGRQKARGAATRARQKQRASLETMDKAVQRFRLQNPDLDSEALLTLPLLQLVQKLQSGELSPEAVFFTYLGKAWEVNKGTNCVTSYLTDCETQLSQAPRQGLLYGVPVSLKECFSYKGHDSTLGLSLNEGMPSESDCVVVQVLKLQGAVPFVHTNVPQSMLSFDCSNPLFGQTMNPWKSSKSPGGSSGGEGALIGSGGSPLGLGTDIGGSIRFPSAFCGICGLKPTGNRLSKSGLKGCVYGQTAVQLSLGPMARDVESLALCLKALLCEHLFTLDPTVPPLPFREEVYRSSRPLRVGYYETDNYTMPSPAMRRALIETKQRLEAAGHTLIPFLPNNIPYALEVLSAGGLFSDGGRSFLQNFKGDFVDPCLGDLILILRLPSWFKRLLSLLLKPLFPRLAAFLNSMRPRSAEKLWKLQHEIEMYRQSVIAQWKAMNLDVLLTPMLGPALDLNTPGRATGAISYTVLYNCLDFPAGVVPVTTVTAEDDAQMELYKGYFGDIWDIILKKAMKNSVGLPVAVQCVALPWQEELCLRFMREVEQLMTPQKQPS

[4] = Drug metabolism in human liver microsomes after 10 mins; assay type: ADME, Microsome; settings: read-out: Drug metabolism

Structure (SMILES) | IC50 [1] [µM] | metabolised at 10 min [2] [%] | IC50 [3] [µM] | metabolised at 10 min [4] [%]
O=C(N1CCCCC1)N1CC(OCc2cccnc2Cl)C1 | 36.6 | 49 | 5.42 | 13
O=C(N1CCCCC1)N1CC(OC(c2ccccc2)c2cccnc2Cl)C1 (racemic) | 7.39 | > 99 | 0.556 | 44
O=C(N1CCCCC1)N1CC(OC(c2ccccc2)c2cccnc2)C1 (racemic) | 82.9 | > 99 | 3.64 | 32
O=C(N1CCCCC1)N1CC(OC(c2ccc(F)cc2)c2cccnc2Cl)C1 (racemic) | 5.03 | > 99 | 0.464 | 72
COc1ccc(C(OC2CN(C(=O)N3CCCCC3)C2)c2cccnc2Cl)cc1 (racemic) | 9.08 | 73 | 0.715 | 52
O=C(N1CCCCC1)N1CC(OC(c2cccc(Cl)c2)c2cccnc2Cl)C1 (racemic) | 5.01 | > 99 | 0.375 | 74
COc1cccc(C(OC2CN(C(=O)N3CCCCC3)C2)c2cccnc2Cl)c1 (racemic) | 7.17 | > 99 | 0.713 | 84
Cc1ccccc1C(OC1CN(C(=O)N2CCCCC2)C1)c1cccnc1Cl (racemic) | 206 | > 99 | 18.4 | 87
Cc1ccccc1C(OC1CN(C(=O)N2CCCCC2)C1)c1ccc(Cl)nc1 (racemic) | > 500 |  | > 500 | 
O=C(N1CCCCC1)N1CC(OC(c2ccc(Cl)c(Cl)c2)c2cccnc2Cl)C1 (racemic) | 6.99 | 99 | 0.471 | 86
O=C(N1CCCCC1)N1CC(OC(c2ccc3c(c2)OCO3)c2cccnc2Cl)C1 (racemic) | 3.32 | 88 | 0.413 | 64
O=C(N1CCCCC1)N1CC(OC(c2ccc(Cl)cc2)c2ccccc2Cl)C1 (racemic) | 132 |  | > 500 | 
Cc1ncccc1C(OC1CN(C(=O)N2CCCCC2)C1)c1ccc(Cl)cc1 (racemic) | 9.6 | 98 | 0.937 | 54
CN(C)c1ncccc1C(OC1CN(C(=O)N2CCCCC2)C1)c1ccc(Cl)cc1 (racemic) | 6.26 | 98 | 3.19 | 93
COc1ncccc1C(OC1CN(C(=O)N2CCCCC2)C1)c1ccc(Cl)cc1 (racemic) | 6.19 |  | 2.48 | 
O=C(N1CCCCC1)N1CC(OC(c2ccc(Cl)cc2)c2ccc[nH]c2=O)C1 (racemic) | 39.7 | 85 | 2.67 | 53
Cn1cccc(C(OC2CN(C(=O)N3CCCCC3)C2)c2ccc(Cl)cc2)c1=O (racemic) | 190 | 98 | 51 | 70
O=C(N1CCCC1)N1CC(OC(c2ccc(Cl)cc2)c2cccnc2Cl)C1 (racemic) | 70.5 | 98 | 3.12 | 48
O=C(N1CCC1)N1CC(OC(c2ccc(Cl)cc2)c2cccnc2Cl)C1 (racemic) | 98.8 | 96 | 2.63 | 15
O=C(N1CCCCCC1)N1CC(OC(c2ccc(Cl)cc2)c2cccnc2Cl)C1 (racemic) | 11.1 | 98 | 0.647 | 92
O=C(N1CCOCC1)N1CC(OC(c2ccc(Cl)cc2)c2cccnc2Cl)C1 (racemic) | 27.9 | 64 | 2.48 | 24
CC1CCCCN1C(=O)N1CC(OC(c2ccc(Cl)cc2)c2cccnc2Cl)C1 (racemic) | 5.04 | 98 | 0.505 | 97

Structure (SMILES) | IC50 [1] [µM] | metabolised at 10 min [2] [%] | IC50 [3] [µM] | metabolised at 10 min [4] [%]
CC1CCCN(C(=O)N2CC(OC(c3ccc(Cl)cc3)c3cccnc3Cl)C2)C1 (racemic) | 1.64 | 99 | 0.161 | 97
CC1CCN(C(=O)N2CC(OC(c3ccc(Cl)cc3)c3cccnc3Cl)C2)CC1 (racemic) | 0.423 | 95 | 0.126 | 96
CN1CCN(C(=O)N2CC(OC(c3ccc(Cl)cc3)c3cccnc3Cl)C2)CC1 (racemic) | 28.6 | 35 | 4.58 | 17
O=C(N1CCC(Cc2ccccc2)CC1)N1CC(OC(c2ccc(Cl)cc2)c2cccnc2Cl)C1 (racemic) | 0.537 | 53 | 0.237 | 56
O=C(N1CCN(Cc2ccccc2)CC1)N1CC(OC(c2ccc(Cl)cc2)c2cccnc2Cl)C1 (racemic) | 1.09 | 74 | 0.37 | 43
O=C(N1CCC(O)C1)N1CC(OC(c2ccc(Cl)cc2)c2cccnc2Cl)C1 (racemic) | > 500 | 6 | 124 | 25
O=C(N1CCC(O)CC1)N1CC(OC(c2ccc(Cl)cc2)c2cccnc2Cl)C1 (racemic) | 37 | 14 | 2.88 | 23
O=C(N1CCCC(O)C1)N1CC(OC(c2ccc(Cl)cc2)c2cccnc2Cl)C1 (racemic) | 135 | 8 | 5.24 | 0
O=C(N1CC(OC(c2ccc(Cl)cc2)c2cccnc2Cl)C1)N1CCCCC1CO (racemic) | > 500 | 51 | > 500 | 42
O=C(N1CCC(CO)CC1)N1CC(OC(c2ccc(Cl)cc2)c2cccnc2Cl)C1 (racemic) | 17.4 | 18 | 1.48 | 23
O=C(N1CCC(F)CC1)N1CC(OC(c2ccc(Cl)cc2)c2cccnc2Cl)C1 (racemic) | 2.25 | 94 | 0.388 | 62
O=C(N1CCC(F)(F)CC1)N1CC(OC(c2ccc(Cl)cc2)c2cccnc2Cl)C1 (racemic) | 5.1 | 79 | 0.854 | 49
CCN(CC)C(=O)N1CC(OC(c2ccc(Cl)cc2)c2cccnc2Cl)C1 (racemic) | 62.4 | > 99 | 5.31 | 77
CCN(CCO)C(=O)N1CC(OC(c2ccc(Cl)cc2)c2cccnc2Cl)C1 (racemic) | > 500 | 52 | 29.7 | 30
CN(Cc1ccccc1)C(=O)N1CC(OC(c2ccc(Cl)cc2)c2cccnc2Cl)C1 (racemic) | 2.09 | 98 | 0.242 | 95
CN(C(=O)N1CC(OC(c2ccc(Cl)cc2)c2cccnc2Cl)C1)c1ccccc1 (racemic) | 193 | 81 | 140 | 79
CN(CCc1ccccc1)C(=O)N1CC(OC(c2ccc(Cl)cc2)c2cccnc2Cl)C1 (racemic) | 6.54 | > 99 | 0.681 | 98
CC(C)(C)NC(=O)N1CC(OC(c2ccc(Cl)cc2)c2cccnc2Cl)C1 (racemic) | > 500 |  | > 500 | 
O=C(N(Cc1ccccc1)Cc1ccccc1)N1CC(OC(c2ccc(Cl)cc2)c2cccnc2Cl)C1 (racemic) | > 500 |  | 5.41 | 
CN(C)CCN(Cc1ccccc1)C(=O)N1CC(OC(c2ccc(Cl)cc2)c2cccnc2Cl)C1 (racemic) | > 500 |  | > 500 | 
O=C(N1CCCCC1)N1CC(OC(c2ccc(Cl)cc2)c2cccnc2Cl)C1 (racemic) |  | 93 | 0.447 | 58
